According to US20210238197A1, “NOVEL OXOQUINOLIZINE COMPOUNDS FOR THE TREATMENT AND PROPHYLAXIS OF BACTERIAL INFECTION” (Hoffmann-La Roche Inc., priority 2018, published 2021):
≈ marks a conversion by molar mass, not a printed value. Read-outs that look alike come from different tables or passages of the source.

Columns and labels:
A. baumannii (ATCC17978) = test: 50% growth inhibitory concentration (IC50) determination assay, A. baumannii; assay type: cell-based; conditions: Acinetobacter baumannii, ATCC17978; Iso-Sensitest broth, growth by OD 600 nm over 16 h; <0.098 = detection limit
Procedure: (§1) The in vitro antimicrobial activity of the compounds against S. aureus (ATCC29213), K. pneumoniae (ATCC10031), and A. baumannii (ATCC17978), was determined according to the following procedure: The assay used a 10-points Iso-Sensitest broth medium to measure quantitatively the in vitro activity of the compounds against S. aureus ATCC29213, K. pneumoniae ATCC 10031, and A. baumannii ATCC17978. Stock compounds in DMSO were serially two-fold diluted (range from 50 to 0.097 μM final concentration) in 384 wells microtiter plates and inoculated with 49 μL the bacterial suspension in Iso-Sensitest broth medium to have a final cell concentration of ˜5×10^5 CFU/mL in a final volume/well of 50 μL/well. Microtiter plates were incubated at 35±2° C. Bacterial cell growth was determined with the measurement of optical density at λ=600 nm each 20 minutes over a time course of 16 h.

S. aureus (ATCC29213) = test: 50% growth inhibitory concentration (IC50) determination assay, S. aureus; assay type: cell-based; conditions: Staphylococcus aureus, ATCC29213; Iso-Sensitest broth, growth by OD 600 nm over 16 h; <0.098 = detection limit
Procedure: as §1

[1] = tested on: K. pneumoniae (ATCC10031); test: 50% growth inhibitory concentration (IC50) determination assay, K. pneumoniae; assay type: cell-based; conditions: Klebsiella pneumoniae, ATCC10031; Iso-Sensitest broth, growth by OD 600 nm over 16 h; <0.098 = detection limit
Procedure: as §1

[2] = tested on: multiple species and strains; test: microbe, parasite or virus in culture; set-up: MIC S9 / MIC S7 / MIC S11 / MIC S8 / MIC S10: unit not given beside the values; conditions: for MIC S9: E. coli ATCC 35218
Procedure: The MIC of antibacterial compounds against multiple species and strains was determined using the broth microdilution method according to M07-A10 Clinical and Laboratory Standards Institute (CLSI) guidelines (CLSI (2015) Methods for dilution antimicrobial susceptibility tests for bacteria that grow aerobically; Approved Standard, Tenth Edition. CLSI Document M7-A10 (ISBN 1-56238-987-4). Wayne, Pa.: Clinical and Laboratory Standards Institute, 19087, USA.). In short, bacterial strain preparation was performed on D1 and D2. […] 5-10 well-isolated colonies of similar morphology were selected and re-streaked onto fresh agar plates using sterile loops and incubated for 20-24 hr at 35±2° C. Bacterial strains were subcultured two times to ensure fresh inoculums for MIC screening. […] Alternatively, 1-2 colonies were transferred into 500 μL of saline and OD600 was adjusted to ˜0.1 using an OD meter. Bacterial inoculum was diluted by 1:280 for Gram-positive strains and 1:400 for Gram-negative strains into corresponding medium broth (CAMHB, CAMHB+3% lysed horse blood, HTM) (e.g. 35.6 μL of inoculum into 10 mL of CAMHB or 25 μL of inoculum into 10 mL of CAMHB). For compound plate, the compound stock solutions were prepared in 100% DMSO on the day of MIC screening and used immediately. Compound stock concentration=[(highest testing concentration)×100 μL/2 μL] (e.g. if the required highest testing concentration is 64 μg/mL in assay plates, stock concentration=64 μg/mL×100 μL/2 μL=3.2 mg/mL). […] 1 μL of each well was transferred in a new MTP, which served as the test plate by subsequent inoculation. The bacterial suspension prepared above is dispensed at 98 μL/well within 15 minutes after preparation. Negative controls (lack of bacterial cells) and growth control wells (lack of compound) were included in all plates. MTPs were incubated for 18-24 hours at 35±2° C. in ambient air. The MIC was recorded and CFUs were calculated on Day 4. The assay plate was placed on the top of MIC reader, and the magnification mirror was adjusted to read each wells, recording growth status as raw data. Photo images of each assay plates were recorded using Q Count 530 (Spiral Biotech). The MIC value of each compound, expressed as μg/mL, was determined as the lowest concentration required for complete growth inhibition (no visible growth).

[3] = Acinetobacter baumannii, ATCC19606, read-out: MIC S1, A. baumannii ATCC 19606
[4] = Acinetobacter baumannii, ATCC51432, read-out: MIC S2, A. baumannii ATCC 51432
[5] = Acinetobacter baumannii, ATCCBAA747, read-out: MIC S3, A. baumannii ATCC BAA-747
[6] = Escherichia coli, ATCC25922, read-out: MIC S11, E. coli ATCC 25922
[7] = Escherichia coli, ATCCBAA2340, read-out: MIC S10, E. coli ATCC BAA-2340
[8] = Klebsiella pneumoniae, ATCC10031, read-out: MIC S4, K. pneumoniae ATCC 10031
[9] = Klebsiella pneumoniae, ATCC700603, read-out: MIC S5, K. pneumoniae ATCC 700603
[10] = Klebsiella pneumoniae, ATCCBAA2146, read-out: MIC S6, K. pneumoniae ATCC BAA-2146
[11] = Pseudomonas aeruginosa, ATCC27853, read-out: MIC S7, P. aeruginosa ATCC 27853
[12] = Pseudomonas aeruginosa, ATCCBAA2113, read-out: MIC S8, P. aeruginosa ATCC BAA-2113

SMILES | IC50 (A. baumannii (ATCC17978)) | IC50 (S. aureus (ATCC29213)) | IC50 [1] | MIC [2, 3] | MIC [2, 4] | MIC [2, 5] | MIC S9 [2] | MIC [2, 6] | MIC [2, 7] | MIC [2, 8] | MIC [2, 9] | MIC [2, 10] | MIC [2, 11] | MIC [2, 12] | MIC S11 ([2]; E. coli ATCC 25922) | MIC S7 ([2]; P. aeruginosa ATCC 27853)
CNc1cc(F)c(F)c2c1[nH]c1ncc(-c3ccc4c(C)cc(C(=O)O)c(=O)n4c3)c(N3CC[C@H]4CN(C)C[C@H]43)c12 (relative stereo) [Example 2.04, 7-[4-[cis-5-methyl-2,3,3a,4,6,6a-hexahydropyrrolo[2,3-c]pyrrol-1-yl]-5,6-difluoro-8-(methylamino)-9H-pyrido[2,3-b]indol-3-yl]-1-methyl-4-oxo-quinolizine-3-carboxylic acid] | < 98 nM | < 98 nM | < 98 nM | 0.461 µg/mL (≈ 0.825 µM) | 0.614 µg/mL (≈ 1.1 µM) | 0.922 µg/mL (≈ 1.65 µM) | 0.614 | 0.173 µg/mL (≈ 0.31 µM) | 0.922 µg/mL (≈ 1.65 µM) | 0.077 µg/mL (≈ 0.138 µM) | 4.92 µg/mL (≈ 8.8 µM) | 4.92 µg/mL (≈ 8.8 µM) | 2.46 µg/mL (≈ 4.4 µM) | 3.69 µg/mL (≈ 6.6 µM) | – | –
CNc1cc(F)c(F)c2c1[nH]c1ncc(-c3ccc4c(C5CC5)cc(C(=O)O)c(=O)n4c3)c(N3CC[C@H]4CN(C)C[C@H]43)c12 (relative stereo) [Example 2.05, 7-[4-[cis-5-methyl-2,3,3a,4,6,6a-hexahydropyrrolo[2,3-c]pyrrol-1-yl]-5,6-difluoro-8-(methylamino)-9H-pyrido[2,3-b]indol-3-yl]-1-cyclopropyl-4-oxo-quinolizine-3-carboxylic acid] | < 98 nM | < 98 nM | < 98 nM | – | – | – | – | – | – | – | – | – | – | – | – | –
CNc1cc(F)c(F)c2c1[nH]c1ncc(-c3ccc4c(Cl)cc(C(=O)O)c(=O)n4c3)c(N3CC[C@H]4CN(C)C[C@H]43)c12 (relative stereo) [Example 2.11, 7-[4-[cis-5-methyl-2,3,3a,4,6,6a-hexahydropyrrolo[2,3-c]pyrrol-1-yl]-5,6-difluoro-8-(methylamino)-9H-pyrido[2,3-b]indol-3-yl]-1-chloro-4-oxo-quinolizine-3-carboxylic acid] | < 98 nM | < 98 nM | < 98 nM | 0.27 µg/mL (≈ 0.466 µM) | 0.541 µg/mL (≈ 0.934 µM) | 0.541 µg/mL (≈ 0.934 µM) | 1.081 | 0.203 µg/mL (≈ 0.351 µM) | 1.08 µg/mL (≈ 1.87 µM) | 0.068 µg/mL (≈ 0.117 µM) | 4.33 µg/mL (≈ 7.48 µM) | 4.33 µg/mL (≈ 7.48 µM) | 2.17 µg/mL (≈ 3.74 µM) | 4.33 µg/mL (≈ 7.48 µM) | – | –
CNc1cc(F)c(C#N)c2c1[nH]c1ncc(-c3ccc4ccc(C(=O)O)c(=O)n4c3)c(N3C[C@H]4CCN(C)[C@H]4C3)c12 (single isomer, unassigned) [Example 1.11, 7-[5-cyano-6-fluoro-4-(cis-1-methyl-2,3,3a,4,6,6a-hexahydropyrrolo[3,4-b]pyrrol-5-yl)-8-(methylamino)-9H-pyrido[2,3-b]indol-3-yl]-4-oxo-quinolizine-3-carboxylic acid] | < 98 nM | < 98 nM | < 98 nM | 0.26 µg/mL (≈ 0.471 µM) | 0.26 µg/mL (≈ 0.471 µM) | 0.26 µg/mL (≈ 0.471 µM) | 0.260 | – | 0.26 µg/mL (≈ 0.471 µM) | 0.033 µg/mL (≈ 0.0598 µM) | 1.04 µg/mL (≈ 1.88 µM) | 1.04 µg/mL (≈ 1.88 µM) | – | 2.08 µg/mL (≈ 3.77 µM) | 0.097 | 1.038
CNc1cc(F)c(F)c2c1[nH]c1ncc(-c3ccc4ccc(C(=O)O)c(=O)n4c3)c(N3CC4C(N(C)C)CO[C@@H]4C3)c12 (stereo partly drawn) [Example 1.06, 7-[4-[cis-3-(dimethylamino)-2,3,3a,4,6,6a-hexahydrofuro[2,3-c]pyrrol-5-yl]-5,6-difluoro-8-(methylamino)-9H-pyrido[2,3-b]indol-3-yl]-4-oxo-quinolizine-3-carboxylic acid] | < 98 nM | 137 nM | < 98 nM | – | – | – | – | – | – | – | – | – | – | – | – | –
